target: KRas G12C (Homo sapiens, UniProt P01116, G12C); test: Cellular inhibition of KRas G12C measured by Phospho-ERK in NCI-H358 cells; assay type: cell-based; conditions: pERK(Thr202/Tyr204) normalized with GAPDH, NCI-H358 cells, 3 hours; read-out: IC50
In short: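 Ratio of phospho-ERK(Thr202/Tyr204) to GAPDH, read by near-infrared secondary antibodies on fixed, permeabilised NCI-H358 cells, expressed relative to DMSO control. Compound exposure was 3 h at 0.5% DMSO. IC50 values come from 4-parameter curve fits.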

Chain of KRas G12C (P01116 1-188 isoform P01116-2 G12C): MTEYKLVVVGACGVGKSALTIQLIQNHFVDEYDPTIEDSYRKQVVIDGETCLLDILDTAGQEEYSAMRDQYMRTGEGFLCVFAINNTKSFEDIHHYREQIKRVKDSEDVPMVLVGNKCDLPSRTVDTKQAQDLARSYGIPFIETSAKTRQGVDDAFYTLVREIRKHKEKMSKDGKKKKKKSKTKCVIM

Structure (SMILES) | IC50
C=CC(=O)N1CCN(c2nc(OCC3CN(C)CCN3)nc3c2CCN(c2cc(O)cc4ccccc24)C3)CC1 (stereo not drawn) [Example 80, 1-(4-(7-(3-hydroxynaphthalen-1-yl)-2-((4-methylpiperazin-2-yl)methoxy)-5,6,7,8-tetrahydropyrido[3,4-d]pyrimidin-4-yl)piperazin-1-yl)prop-2-en-1-one] | > 1000 nM
C=CC(=O)N1CCN(c2nc(NC3CCN(C4CC4)CC3)nc3c2CCN(c2cc(O)cc4ccccc24)C3)CC1 [Example 204, 1-(4-(2-((1-cyclopropylpiperidin-4-yl)amino)-7-(3-hydroxynaphthalen-1-yl)-5,6,7,8-tetrahydropyrido[3,4-d]pyrimidin-4-yl)piperazin-1-yl)prop-2-en-1-one] | > 1000 nM
C=CC(=O)N1CCN(c2nc(OC[C@@H]3CCCN3C)nc3c2CCN(c2c(OC)ccc4[nH]ncc24)C3)CC1 [Example 157] | > 1000 nM
C=CC(=O)N1CCN(c2nc(OCC3CCN(Cc4ccccc4)C3)nc3c2CCN(c2cc(O)cc4ccccc24)C3)CC1 (stereo not drawn) [Example 189, 1-(4-(2-((1-benzylpyrrolidin-3-yl)methoxy)-7-(3-hydroxynaphthalen-1-yl)-5,6,7,8-tetrahydropyrido[3,4-d]pyrimidin-4-yl)piperazin-1-yl)prop-2-en-1-one] | > 1000 nM
C=CC(=O)N1CCN(c2nc(OCCCN3CCOCC3)nc3c2CCN(c2cc(C(F)F)cc4ccccc24)C3)CC1 [Example 112, 1-(4-(7-(3-(difluoromethyl)naphthalen-1-yl)-2-(3-morpholinopropoxy)-5,6,7,8-tetrahydropyrido[3,4-d]pyrimidin-4-yl)piperazin-1-yl)prop-2-en-1-one] | > 1000 nM
C=CC(=O)N1CCN(c2nc(OC[C@@H]3C[C@H](OC)CN3C)nc3c2CCN(c2cccc4ccccc24)C3)CC1CC#N (stereo partly drawn) [Example 222, 2-(1-acryloyl-4-(2-(((2S,4S)-4-methoxy-1-methylpyrrolidin-2-yl)methoxy)-7-(naphthalen-1-yl)-5,6,7,8-tetrahydropyrido[3,4-d]pyrimidin-4-yl)piperazin-2-yl)acetonitrile] | 0.1 to 1000 nM
C=CC(=O)N1CCN(c2nc(N3CCC(N(C)C)CC3)nc3c2CCN(c2cc(O)cc4ccccc24)C3)CC1 [Example 17, 1-(4-(2-(4-(dimethylamino)piperidin-1-yl)-7-(3-hydroxynaphthalen-1-yl)-5,6,7,8-tetrahydropyrido[3,4-d]pyrimidin-4-yl)piperazin-1-yl)prop-2-en-1-one] | > 1000 nM
C=CC(=O)N1CCN(c2nc(OC[C@@H]3CCCN3C(C)C)nc3c2CCN(c2cccc4ccccc24)C3)CC1CC#N (stereo partly drawn) [Example 285, 2-[4-[2-[[(2S)-1-isopropylpyrrolidin-2-yl]methoxy]-7-(1-naphthyl)-6,8-dihydro-5H-pyrido[3,4-d]pyrimidin-4-yl]-1-prop-2-enoyl-piperazin-2-yl]acetonitrile] | 0.1 to 1000 nM
C=CC(=O)N1CCN(c2ncnc3c2CCN(c2nc(N)cc4ccccc24)C3)CC1 [Example 54, 1-[4-[7-(3-amino-1-isoquinolyl)-6,8-dihydro-5H-pyrido[3,4-d]pyrimidin-4-yl]piperazin-1-yl]prop-2-en-1-one] | > 1000 nM
C=CC(=O)N1CCN(c2nc(OC[C@@H]3CCCN3C)nc3c2CCN(c2ccccc2Cl)C3)CC1CC#N (stereo partly drawn) [Example 229] | 0.1 to 1000 nM
C=CC(=O)N1CCN(c2nc(OC[C@@H]3C[C@H](F)CN3C)nc3c2CCN(c2cccc4ccccc24)C3)CC1CC#N (stereo partly drawn) [Example 221, 2-(1-acryloyl-4-(2-(((2S,4S)-4-fluoro-1-methylpyrrolidin-2-yl)methoxy)-7-(naphthalen-1-yl)-5,6,7,8-tetrahydropyrido[3,4-d]pyrimidin-4-yl)piperazin-2-yl)acetonitrile] | 0.1 to 1000 nM
C=CC(=O)N1CCN(c2nc(OC[C@@H]3CCCN3C)nc3c2CCN(c2ccccc2OC(F)(F)F)C3)CC1CC#N (stereo partly drawn) [Example 211, 2-(1-acryloyl-4-(2-(((S)-1-methylpyrrolidin-2-yl)methoxy)-7-(2-(trifluoromethoxy)phenyl)-5,6,7,8-tetrahydropyrido[3,4-d]pyrimidin-4-yl)piperazin-2-yl)acetonitrile] | 0.1 to 1000 nM
C=CC(=O)N1CCN(c2nc(OCCCN3CCOCC3)nc3c2CCN(c2cc(O)cc4ccccc24)C3)C(CO)C1 (stereo not drawn) [Example 168, 1-(3-(hydroxymethyl)-4-(7-(3-hydroxynaphthalen-1-yl)-2-(3-morpholinopropoxy)-5,6,7,8-tetrahydropyrido[3,4-d]pyrimidin-4-yl)piperazin-1-yl)prop-2-en-1-one] | > 1000 nM
C=CC(=O)N1CCN(c2nc(OCC3CCN(CCOC)C3)nc3c2CCN(c2cc(O)cc4ccccc24)C3)CC1 (stereo not drawn) [Example 103, 1-(4-(7-(3-hydroxynaphthalen-1-yl)-2-((1-(2-methoxyethyl)pyrrolidin-3-yl)methoxy)-5,6,7,8-tetrahydropyrido[3,4-d]pyrimidin-4-yl)piperazin-1-yl)prop-2-en-1-one] | 0.1 to 1000 nM

The next lines start with the values.

IC50 | Structure (SMILES)
0.1 to 1000 nM | C=CC(=O)N1CCN(c2nc(OC[C@@H]3CCN(C)C3)nc3c2CCN(c2cccc4cccc(Cl)c24)C3)C[C@@H]1CC#N [Example 361, 2-[(2S)-4-[7-(8-chloro-1-naphthyl)-2-[[(3R)-1-methylpyrrolidin-3-yl]methoxy]-6,8-dihydro-5H-pyrido[3,4-d]pyrimidin-4-yl]-1-prop-2-enoyl-piperazin-2-yl]acetonitrile]
0.1 to 1000 nM | C=CC(=O)N1CCN(c2nc(OC[C@H]3CN(C)CCO3)nc3c2CCN(c2cccc4ccccc24)C3)CC1CC#N (stereo partly drawn) [Example 270, 2-(1-acryloyl-4-(2-(((R)-4-methylmorpholin-2-yl)methoxy)-7-(naphthalen-1-yl)-5,6,7,8-tetrahydropyrido[3,4-d]pyrimidin-4-yl)piperazin-2-yl)acetonitrile]
0.1 to 1000 nM | C=CC(=O)N1CCN(c2nc(OCC(C)(C)N(C)C)nc3c2CCN(c2cccc4ccccc24)C3)CC1CC#N (stereo not drawn) [Example 269, 2-(1-acryloyl-4-(2-(2-(dimethylamino)-2-methylpropoxy)-7-(naphthalen-1-yl)-5,6,7,8-tetrahydropyrido[3,4-d]pyrimidin-4-yl)piperazin-2-yl)acetonitrile]
> 1000 nM | Cc1cccc(N2CCc3c(nc(OC[C@@H]4CCCN4C)nc3N3CCN(C(=O)/C=C\Cl)[C@@H](CC#N)C3)C2)c1C [Example 505, 2-((S)-1-((Z)-3-chloroacryloyl)-4-(7-(2,3-dimethylphenyl)-2-(((S)-1-methylpyrrolidin-2-yl)methoxy)-5,6,7,8-tetrahydropyrido[3,4-d]pyrimidin-4-yl)piperazin-2-yl)acetonitrile]
> 1000 nM | C=CC(=O)N1CCN(c2nc(OC[C@@H]3CCCN3C)nc3c2CCN(c2ccccc2C#N)C3)C[C@@H]1CC#N [Example 325, 2-[4-[(3S)-3-(cyanomethyl)-4-prop-2-enoyl-piperazin-1-yl]-2-[[(2S)-1-methylpyrrolidin-2-yl]methoxy]-6,8-dihydro-5H-pyrido[3,4-d]pyrimidin-7-yl]benzonitrile]
0.1 to 1000 nM | C=CC(=O)N1CCN(c2nc(OC[C@@H]3C[C@@H](F)CN3C)nc3c2CCN(c2cc(O)cc4ccccc24)C3)CC1 [Example 357, 1-[4-[2-[[(2S,4R)-4-fluoro-1-methyl-pyrrolidin-2-yl]methoxy]-7-(3-hydroxy-1-naphthyl)-6,8-dihydro-5H-pyrido[3,4-d]pyrimidin-4-yl]piperazin-1-yl]prop-2-en-1-one]
> 1000 nM | C=CC(=O)N1CCN(c2nc(OC[C@@H]3CCCN3C)nc3c2CCN(c2ncccc2C(F)(F)F)C3)CC1CC#N (stereo partly drawn) [Example 241]
0.1 to 1000 nM | C=CC(=O)N1CCN(c2nc(OC[C@@H]3CCCN3C)nc3c2CCN(c2cncc(F)c2C(F)(F)F)C3)C[C@@H]1CC#N [Example 383, 2-((S)-1-acryloyl-4-(7-(5-fluoro-4-(trifluoromethyl)pyridin-3-yl)-2-(((S)-1-methylpyrrolidin-2-yl)methoxy)-5,6,7,8-tetrahydropyrido[3,4-d]pyrimidin-4-yl)piperazin-2-yl)acetonitrile]
0.1 to 1000 nM | C=CC(=O)N1CCN(c2nc(OC[C@@H]3CCCN3CCOC)nc3c2CCN(c2cccc4ccccc24)C3)CC1CC#N (stereo partly drawn) [Example 266, 2-(1-acryloyl-4-(2-(((S)-1-(2-methoxyethyl)pyrrolidin-2-yl)methoxy)-7-(naphthalen-1-yl)-5,6,7,8-tetrahydropyrido[3,4-d]pyrimidin-4-yl)piperazin-2-yl)acetonitrile]
0.1 to 1000 nM | C=CC(=O)N1CCN(c2nc(OC[C@@H]3C[C@@H](F)CN3C)nc3c2CCN(c2cccc4ccccc24)C3)C[C@@H]1CC#N [Example 306, 2-((S)-1-acryloyl-4-(2-(((2S,4R)-4-fluoro-1-methylpyrrolidin-2-yl)methoxy)-7-(naphthalen-1-yl)-5,6,7,8-tetrahydropyrido[3,4-d]pyrimidin-4-yl)piperazin-2-yl)acetonitrile]
0.1 to 1000 nM | Cc1cccc2cccc(N3CCc4c(nc(OC[C@@H]5CCCN5C)nc4N4CCN(C(=O)C#CCO)[C@@H](CC#N)C4)C3)c12 [Example 508, 2-((S)-1-(4-hydroxybut-2-ynoyl)-4-(7-(8-methylnaphthalen-1-yl)-2-(((S)-1-methylpyrrolidin-2-yl)methoxy)-5,6,7,8-tetrahydropyrido[3,4-d]pyrimidin-4-yl)piperazin-2-yl)acetonitrile]
0.1 to 1000 nM | C=CC(=O)N1CCN(c2nc(OC[C@@H]3C[C@@H](F)CN3C)nc3c2CCN(c2cccc(C)c2C)C3)C[C@@H]1CC#N [Example 437, 2-((S)-1-acryloyl-4-(7-(2,3-dimethylphenyl)-2-(((2S,4R)-4-fluoro-1-methylpyrrolidin-2-yl)methoxy)-5,6,7,8-tetrahydropyrido[3,4-d]pyrimidin-4-yl)piperazin-2-yl)acetonitrile]
0.1 to 1000 nM | Cc1cccc2cccc(N3CCc4c(nc(OC[C@@H]5CCCN5C)nc4N4CCN(C(=O)/C=C/c5ccccn5)[C@@H](CC#N)C4)C3)c12 [Example 493, 2-((S)-4-(7-(8-methylnaphthalen-1-yl)-2-(((S)-1-methylpyrrolidin-2-yl)methoxy)-5,6,7,8-tetrahydropyrido[3,4-d]pyrimidin-4-yl)-1-((E)-3-(pyridin-2-yl)acryloyl)piperazin-2-yl)acetonitrile]
